Experimental data reported in patent publication US8927717B1, “Thiochromeno[2,3-c]quinolin-12-one derivatives, preparation method and application thereof” (National Defense Medical Center, priority 2014, dated 2015).

How the values were obtained:
Format in all cases: cell-based
[1] = system: CCRF-CEM
[2] = system: HL-60(TB)
[3] = system: K-562
[4] = system: RPMI-8226
[5] = system: NCI-H23; settings: Non-small cell lung cancer; 10^−5 molar; 48 hours; SRB
[6] = system: NCI-H460
[7] = system: NCI-H522
[8] = system: COLO 205
[9] = system: HT29
[10] = system: KM12; assay: cells
[11] = system: SW-620
[12] = system: SF-268
[13] = system: SF-295
[14] = system: SNB-19
[15] = system: SNB-75
[16] = system: U251
[17] = system: LOX IMVI
[18] = system: MALME-3M; settings: Melanoma; 10^−5 molar; 48 hours; SRB
[19] = system: M14
[20] = system: SK-MEL-28; settings: Homo sapiens; SK-MEL-28; five dose
[21] = Leukemia, 10^−5 molar, 48 hours, SRB
[22] = Homo sapiens, NCI-H460, five dose
[23] = Non-small cell lung cancer, 10^−5 molar, 48 hours, SRB
[24] = Homo sapiens, NCI-H522, five dose
[25] = Colon cancer, 10^−5 molar, 48 hours, SRB
[26] = Homo sapiens, COLO 205, five dose
[27] = Homo sapiens, HT-29, HT29, five dose
[28] = Homo sapiens, SW-620, five dose
[29] = CNS cancer, 10^−5 molar, 48 hours, SRB
[30] = Homo sapiens, SF-295, five dose
[31] = Homo sapiens, SNB-19, five dose
[32] = Homo sapiens, SNB-75, five dose
[33] = Homo sapiens, U-251, U251, five dose
[34] = Homo sapiens, LOX IMVI, five dose
[35] = Melanoma, 10^−5 molar, 48 hours, SRB

In the case of CCNc1nc2ccccc2c2c(=O)c3cc(Cl)ccc3sc12 [Compound N2, 10-Chloro-6-ethylamino-12H-thiochromeno[2,3-c]quinolin-12-one], the TGI ([1]; CCRF-CEM, five dose) is reported as >100 µM, the GI50 ([1]; Homo sapiens, CCRF-CEM, five dose) is reported as > 100 µM and the CC50 ([1]; Homo sapiens, CCRF-CEM, five dose, read-out: LC50 (the source's name)) is reported as > 100 µM. For the same compound, the “Growth percent CCRF-CEM” value [1, 21] was 88.62%, the TGI ([2]; HL-60(TB), five dose) was >100 µM and the GI50 ([2]; Homo sapiens, HL-60(TB), five dose) was > 100 µM. For the same compound, the CC50 ([2]; Homo sapiens, HL-60(TB), five dose, read-out: LC50 (the source's name)) was > 100 µM, the “Growth percent HL-60(TB)” value [2, 21] was 103.33% and the GI50 ([3]; Homo sapiens, K562, K-562, five dose) was > 100 µM. For the same compound, the CC50 ([3]; Homo sapiens, K562, K-562, five dose, read-out: LC50 (the source's name)) was > 100 µM, the TGI ([3]; K-562, five dose) was >100 µM and the “Growth percent K-562” value [3, 21] was 77.52%. The GI50 ([4]; Homo sapiens, RPMI-8226, five dose) was > 100 µM, the CC50 ([4]; Homo sapiens, RPMI-8226, five dose, read-out: LC50 (the source's name)) was > 100 µM and the “Growth percent RPMI-8226” value [4, 21] was 79.66%. For the same compound, the TGI ([4]; RPMI-8226, five dose) was >100 µM, the “Growth percent NCI-H23” value [5] was 86.29% and the GI50 [6, 22] was > 100 µM. The LC50 [6, 22] was > 100 µM, the TGI ([6]; NCI-H460, five dose) was >100 µM and the “Growth percent NCI-H460” value [6, 23] was 53.33%. For the same compound, the GI50 [7, 24] was 24.8 µM, the LC50 (concentration causing 50% net cell kill) [7, 24] was > 100 µM and the TGI ([7]; NCI-H522, five dose) was >100 µM. For the same compound, the “Growth percent NCI-H522” value [7, 23] was 80.75%, the TGI ([8]; COLO 205, five dose) was >100 µM and the “Growth percent COLO 205” value [8, 25] was 82.36%. The GI50 [8, 26] was > 100 µM, the LC50 [8, 26] was > 100 µM and the “Growth percent HT29” value [9, 25] was 68.21%. For the same compound, the TGI ([9]; HT29, five dose) was >100 µM, the GI50 [9, 27] was > 100 µM and the LC50 (concentration killing 50% of cells) [9, 27] was > 100 µM. The “Growth percent KM12” value [10, 25] was 85.79%, the GI50 ([10]; Homo sapiens, KM12, five dose) was > 100 µM and the LC50 ([10]; Homo sapiens, KM12, five dose) was > 100 µM. For the same compound, the TGI ([10]; KM12, five dose) was >100 µM, the “Growth percent SW-620” value [11, 25] was 84.65% and the GI50 [11, 28] was > 100 µM. For the same compound, the LC50 [11, 28] was > 100 µM, the TGI ([11]; SW-620, five dose) was >100 µM and the “Growth percent SF-268” value [12, 29] was 78.23%. The GI50 ([12]; Homo sapiens, SF-268, five dose) was 22.1 µM, the CC50 ([12]; Homo sapiens, SF-268, five dose, read-out: LC50 (the source's name)) was > 100 µM and the TGI ([12]; SF-268, five dose) was >100 µM. The “Growth percent SF-295” value [13, 29] was 69.49%, the GI50 [13, 30] was 12.2 µM and the LC50 [13, 30] was > 100 µM. For the same compound, the TGI ([13]; SF-295, five dose) was 35.20 µM, the “Growth percent SNB-19” value [14, 29] was 84.19% and the GI50 [14, 31] was 26.6 µM. For the same compound, the LC50 (concentration killing 50% of cells) [14, 31] was > 100 µM, the TGI ([14]; SNB-19, five dose) was 81.10 µM and the “Growth percent SNB-75” value [15, 29] was 12.12%. It also gave a GI50 [15, 32] of 4.96 µM, an LC50 [15, 32] of 60.2 µM and a TGI ([15]; SNB-75, five dose) of 22.00 µM. For the same compound, the “Growth percent U251” value [16, 29] was 76.58%, the GI50 [16, 33] was 16.9 µM and the LC50 [16, 33] was > 100 µM. The TGI ([16]; U251, five dose) was 67.90 µM, the GI50 [17, 34] was > 100 µM and the LC50 [17, 34] was > 100 µM. For the same compound, the TGI ([17]; LOX IMVI, five dose) was >100 µM, the “Growth percent LOX IMVI” value [17, 35] was 80.61% and the “Growth percent MALME-3M” value [18] was 77.31%. For the same compound, the GI50 ([19]; Homo sapiens, M14, five dose) was > 100 µM, the LC50 ([19]; Homo sapiens, M14, five dose) was > 100 µM and the TGI ([19]; M14, five dose) was >100 µM. For the same compound, the “Growth percent M14” value [19, 35] was 91.72%, the GI50 [20] was > 100 µM and the LC50 [20] was > 100 µM.
